Columns and labels:
[1] = system: Wistar rats; assay: Subacute toxicity: serum and urine glucose, urinary protein excretion; format: in vivo; conditions: rats, p.o., 14 days at 10% of LD50 (CCl4, APAP: once daily, 3 days); mean ± SEM, n = 6
Protocol: (§1) For toxicity tests, acclimatized rats were randomly allocated to 12 groups (n = 12 for the control and n = 6 for the rest groups). […] Meanwhile, the aforementioned vehicles (dose volume 2 mL/kg b.w.) were administered to 3 groups. […] The animals were then housed in individual metabolic cages to collect urine for a period of 6 h and then the volume was recorded. Afterward, blood samples were obtained and the serum was separated by centrifugation at 1,620 × g for 10 min at room temperature.
Serum and urine glucose concentration were calculated using GOD-PAP kits (RANDOX, Laboratories Ltd, UK). Urinary protein was quantified using the Bradford method.[29]
(§2) Serum and urinary creatinine were determined by the Jaffe method. With this value, evaluation was made of the fractional excretion of sodium (FES), fractional excretion of potassium (FEP), and fractional excretion of glucose.[30]^,[31] The GFR was calculated from clearance of endogenous creatinine using the conventional equation:where GFR (CCr) is the creatinine clearance rate (mL/min); UCr and SCr are the creatinine concentrations (mg/dL) in urine and serum, respectively; and φ is the urinary flow rate (UFR) (mL/min). To avoid the error from the tubular secretion of creatinine found in males, only female animals were used.
(§3) The levels of sodium and potassium were measured in urine and serum using a flame photometer (Corning 400, Medfield, United States). Calculation was made of the clearance, fractional excretion, and filtered load of sodium (FLS), filtered load of potassium (FLP), and filtered load of glucose (FLG) using the conventional equations:where CX is the clearance rate of X (mL/min), CCr is the creatinine clearance rate (mL/min), UX and SX are the […] concentrations of X, respectively, φ is the UFR (mL/min), FEX is the fractional excretion (%) of X, and FLX is the filtered load of X in μEq/min (Na^+ or K^+) or mg/min (glucose).

[2] = system: Wistar rats; assay: Subacute toxicity: water and electrolyte balance (osmolality, sodium, potassium, urinary flow); format: in vivo
Protocol: as §1
Osmolality of serum and urine were assessed (in triplicate) by using a vapor pressure osmometer (Wescor 5500, Logan, United States). U/S ratio as well as osmolar (COsm) and free water clearances were calculated via conventional equations:where UOsm and SOsm are the osmolality values (mOsm/Kg) in urine and serum, respectively, and φ is the UFR (mL/min).
as §3

[3] = system: Wistar rats; assay: Subacute toxicity: serum alanine aminotransferase and alkaline phosphatase activity; format: in vivo; conditions: for Alanine Aminotransferase / Alkaline Phosphatase: serum, rats, p.o., 14 days at 10% of LD50 (CCl4, APAP: once daily, 3 days), mean ± SEM, n = 6
Protocol: (§4) For toxicity tests, acclimatized rats were randomly allocated to 12 groups (n = 12 for the control and n = 6 for the rest groups). […] Meanwhile, the aforementioned vehicles (dose volume 2 mL/kg b.w.) were administered to 3 groups. […] Upon completion of the 14-day treatments and before sample collection, the bladders of animals were emptied by gentle pressure on the lower part of the abdomen to induce urination. The animals were then housed in individual metabolic cages to collect urine for a period of 6 h and then the volume was recorded. Afterward, blood samples were obtained and the serum was separated by centrifugation at 1,620 × g for 10 min at room temperature.
The activities of serum alanine aminotransferase (ALT) and alkaline phosphatase (ALP) were measured with standard kits (RANDOX, Laboratories Ltd, UK).

[4] = system: Wistar rats; assay: Hepatic and renal lipid peroxidation (lipid-soluble fluorescence); format: in vivo; conditions: for hepatic LPO, change in words / renal LPO, change in words: compared to the control group (CCl4 also versus PO); for Renal Lipoperoxidation: kidney; for Renal Lipoperoxidation / Hepatic Lipoperoxidation: rats, p.o., 14 days at 10% of LD50 (CCl4, APAP: once daily, 3 days), mean ± SEM, n = 6; for Hepatic Lipoperoxidation: liver
Protocol: as §4
Lipid peroxidation (LPO) was evaluated by the formation of lipid-soluble fluorescence, as previously described. Briefly, kidney and liver tissues were homogenized in 3 and 5 mL of phosphate buffer (0.2 M, pH = 7.4), respectively. A volume of 1 mL (kidney) or 0.8 mL (liver) of the homogenates was added to 7 mL of chloroform-methanol (2:1, v/v), and after 15 s of vortex mixing, the resulting mixture was cooled using an ice bath for 30 min to allow for phase separation. The fluorescence of the organic phase was measured using a Shimadzu fluorometer (Japan; λex = 370 nm; λem = 430 nm), whose sensitivity was adjusted to 140 fluorescence units by using 1 μg/mL of quinine sulfate in 50 mM H2SO4. The results were expressed as relative fluorescence units per milligram of protein.[33]
(§5) The protein concentration in homogenates was measured by the Bradford method.[29]

[5] = system: Wistar rats; assay: Hepatic and renal reactive oxygen species (DCF formation); format: in vivo; conditions: for hepatic ROS, change in words / renal ROS, change in words: compared to the control group (CCl4 also versus PO); for Renal ROS: kidney; for Renal ROS / Hepatic ROS: rats, p.o., 14 days at 10% of LD50 (CCl4, APAP: once daily, 3 days), mean ± SEM, n = 6; for Hepatic ROS: liver
Protocol: as §4
Reactive oxygen species (ROS) were measured by formation of 2′,7′-dichlorofluorescein (DCF). An aliquot of 10 μL (kidney) or 5 μL (liver) of the homogenates was added to 1,940 or 1,945 μL of TRIS:HEPES (18:1) and was incubated in the presence of 50 μL of 2′,7′-dichlorofluorescein diacetate for 1 h at 37 °C. In order to quench the reaction, the mixture was chilled using an ice bath. The fluorescence was measured using a Shimadzu fluorometer (Japan; λex = 488 nm; λem = 525 nm). The results were expressed as nM DCF formed per mg protein/h.[33]
as §5

[6] = system: Wistar rats; assay: Subacute toxicity: glomerular filtration rate (creatinine clearance) and serum creatinine; format: in vivo; conditions: rats, p.o., 14 days at 10% of LD50 (CCl4, APAP: once daily, 3 days); mean ± SEM, n = 6
Protocol: as §1, §2

[7] = system: renal secretory pathway of organic anions; assay: Active tubular secretion of organic acids (PAH uptake in kidney cortex slices); format: in vivo, rats; conditions: kidney cortex slices, PAH 1 mM, 1 h, 25 °C; rats, p.o., 14 days at 10% of LD50 (CCl4, APAP: once daily, 3 days); mean ± SEM, n = 6
Protocol: as §4
p-Aminohippuric acid (PAH) was used as an indicator of the renal secretory pathway of organic anions. Kidneys were extracted and immediately submerged in Ringer solution (pH = 7.4 and mOsm = 290 ± 10 mOsm/kg) under constant bubbling with O2/CO2 (95/5%). The kidneys were decapsulated and slices of the kidney cortex were obtained, which were then incubated in Ringer solution containing PAH (1 mM) for 1 h at 25 °C under constant bubbling with O2/CO2 (95/5%). The levels of PAH were quantified with the Bratton-Marshall method and results were expressed as the PAH tissue/medium ratio (PAH t/m ratio).[31]^,[32]

[8] = rats, p.o., 14 days at 10% of LD50 (CCl4, APAP: once daily, 3 days), mean ± SEM, n = 6
[9] = compared to the control (CCl4 also versus PO)

| SMILES | Filtered Load of Glucose [1] [mg/min] | Fractional Excretion of Glucose [1] [%] | Urinary Glucose Excretion [1] [ng/min] | Urinary Protein Excretion [1] [µg/min] | Filtered Load of Potassium [2, 8] [µEq/min] | Filtered Load of Sodium [2, 8] [µEq/min] | Fractional Excretion of Potassium [2, 8] [%] | Fractional Excretion of Sodium [2, 8] [%] | Serum Osmolality [2, 8] [mOsm/kg] | Serum Potassium [2, 8] [mEq/L] | Serum Sodium [2, 8] [mEq/L] | Urinary Flow Rate [2, 8] [µL/min] | Urinary Potassium Excretion [2, 8] [µEq/min] | Urinary Sodium Excretion [2, 8] [µEq/min] | Alanine Aminotransferase [3] [U/L] | Alkaline Phosphatase [3] [U/L] | hepatic LPO, change in words [4] | renal LPO, change in words [4] | Renal Lipoperoxidation [4] [URF/mg protein] | Hepatic Lipoperoxidation [4] [URF/mg protein] | further results |
| --- | --- | --- | --- | --- | --- | --- | --- | --- | --- | --- | --- | --- | --- | --- | --- | --- | --- | --- | --- | --- | --- |
| CC(=O)Nc1ccc(O)cc1 [APAP, acetaminophen, reference compound] | 1.35 ± 0.27 | 0.01 ± 1.9E-3 | 87.10 ± 19.92 | 0.94 ± 0.24 | 3.99 ± 0.80 | 147.38 ± 31.27 | 12.50 ± 3.12 | 0.27 ± 0.09 | 295.68 ± 1.57 | 3.78 ± 0.22 | 138.58 ± 2.37 | 6.19 ± 1.15 | 0.47 ± 0.14 | 0.46 ± 0.21 | 41.47 ± 4.80 | 151.97 ± 11.19 | increased | increased | 0.46 ± 0.06 | 1.06 ± 0.06 | serum potassium, change in words ([2]; compared to the control group, significant by PLS VIP and ANOVA): decreased; hepatic ROS, change in words [5]: increased; renal ROS, change in words [5]: increased; Renal ROS [5]: 421.62 ± 56.57 nM de DCF/mg protein/h; Hepatic ROS [5]: 1740.28 ± 231.55 nM de DCF/mg protein/h |
| ClC(Cl)(Cl)Cl [CCl4, carbon tetrachloride, reference compound] | 4.64 ± 1.71 | 0.02 ± 0.01 | 265.11 ± 89.54 | 12.15 ± 4.49 | 17.22 ± 5.29 | 592.11 ± 199.71 | 6.86 ± 2.06 | 0.21 ± 0.06 | 305.77 ± 3.41 | 4.27 ± 0.25 | 139.08 ± 1.63 | 6.59 ± 1.39 | 0.73 ± 0.10 | 0.72 ± 0.13 | 127.80 ± 4.08 | 328.19 ± 61.36 | increased | increased | 0.61 ± 0.07 | 1.06 ± 0.11 | Serum Glucose [1]: 103.17 ± 4.35 mg/dL; Glomerular Filtration Rate [6]: 4.30 ± 1.47 mL/min; Serum Creatinine [6]: 0.45 ± 0.13 mg/dL; U/S Osm ratio [2, 8]: 3.27 ± 0.37; serum ALP, change in words [3, 9]: increased; serum ALT, change in words [3, 9]: increased; PAH t/m ratio [7]: 2.08 ± 0.11; hepatic ROS, change in words [5]: increased; renal ROS, change in words [5]: increased; Renal ROS [5]: 333.27 ± 74.29 nM de DCF/mg protein/h; Hepatic ROS [5]: 1434.82 ± 121.35 nM de DCF/mg protein/h |
